Patent US20260240208A1, “FLAVANONE COMPOUNDS AND THEIR USE AS FLAVOR MODIFIERS” (Firmenich Incorporated, priority 2023, published 2026)

Columns and labels:
[1] = sensory panel: sweetness enhancement of sucrose, rating on a scale of 0 to 10; assay type: in vivo, human; conditions: mean panel score, scale 0 to 10
Method: Two control samples were prepared of 6 wt % sucrose and 7.5 wt % sucrose in Low sodium buffer. Two test samples were prepared: one at 6 wt % sucrose plus 4 ppm of Compound 101, and the other at 6 wt % sucrose plus 7 ppm of Compound 103. Panelists were asked to evaluate the four samples and rate the sweetness on a scale of 0 to 10, with a higher rating indicating greater sweetness.

TIR sweet taste receptor = target: T1, TIR sweet taste receptor (Homo sapiens, UniProt Q7RTX0+Q8TE23); test: in vitro cell-based assay with cells overexpressing the sweet taste receptor, sweet dose-response; conditions: for EC50: cells overexpressing TIR sweet taste receptor, sweet dose-response curves
T1 construct: expressed in transfected cells
T1 sequence (Q8TE23 20-839): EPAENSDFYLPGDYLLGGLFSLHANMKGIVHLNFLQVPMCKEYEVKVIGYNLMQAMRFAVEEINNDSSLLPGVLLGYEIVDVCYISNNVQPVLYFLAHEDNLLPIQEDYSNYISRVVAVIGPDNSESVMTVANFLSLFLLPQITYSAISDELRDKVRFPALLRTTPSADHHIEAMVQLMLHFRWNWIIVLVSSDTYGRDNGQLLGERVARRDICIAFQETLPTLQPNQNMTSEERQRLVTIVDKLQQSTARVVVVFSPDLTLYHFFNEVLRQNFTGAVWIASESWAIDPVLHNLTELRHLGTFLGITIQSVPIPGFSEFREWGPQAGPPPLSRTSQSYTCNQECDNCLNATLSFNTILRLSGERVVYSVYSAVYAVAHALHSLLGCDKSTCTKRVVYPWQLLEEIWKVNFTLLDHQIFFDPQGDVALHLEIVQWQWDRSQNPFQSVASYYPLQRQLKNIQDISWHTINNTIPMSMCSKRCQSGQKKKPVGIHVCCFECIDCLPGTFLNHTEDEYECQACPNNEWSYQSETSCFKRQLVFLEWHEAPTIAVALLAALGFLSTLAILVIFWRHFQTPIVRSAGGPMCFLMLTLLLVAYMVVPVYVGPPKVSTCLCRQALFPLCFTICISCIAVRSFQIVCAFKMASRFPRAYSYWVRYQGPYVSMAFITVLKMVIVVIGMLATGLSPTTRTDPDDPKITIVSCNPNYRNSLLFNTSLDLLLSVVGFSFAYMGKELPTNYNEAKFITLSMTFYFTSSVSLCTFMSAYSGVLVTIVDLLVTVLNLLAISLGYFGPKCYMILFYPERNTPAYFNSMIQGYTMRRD
T1 sequence (Q7RTX0 21-852): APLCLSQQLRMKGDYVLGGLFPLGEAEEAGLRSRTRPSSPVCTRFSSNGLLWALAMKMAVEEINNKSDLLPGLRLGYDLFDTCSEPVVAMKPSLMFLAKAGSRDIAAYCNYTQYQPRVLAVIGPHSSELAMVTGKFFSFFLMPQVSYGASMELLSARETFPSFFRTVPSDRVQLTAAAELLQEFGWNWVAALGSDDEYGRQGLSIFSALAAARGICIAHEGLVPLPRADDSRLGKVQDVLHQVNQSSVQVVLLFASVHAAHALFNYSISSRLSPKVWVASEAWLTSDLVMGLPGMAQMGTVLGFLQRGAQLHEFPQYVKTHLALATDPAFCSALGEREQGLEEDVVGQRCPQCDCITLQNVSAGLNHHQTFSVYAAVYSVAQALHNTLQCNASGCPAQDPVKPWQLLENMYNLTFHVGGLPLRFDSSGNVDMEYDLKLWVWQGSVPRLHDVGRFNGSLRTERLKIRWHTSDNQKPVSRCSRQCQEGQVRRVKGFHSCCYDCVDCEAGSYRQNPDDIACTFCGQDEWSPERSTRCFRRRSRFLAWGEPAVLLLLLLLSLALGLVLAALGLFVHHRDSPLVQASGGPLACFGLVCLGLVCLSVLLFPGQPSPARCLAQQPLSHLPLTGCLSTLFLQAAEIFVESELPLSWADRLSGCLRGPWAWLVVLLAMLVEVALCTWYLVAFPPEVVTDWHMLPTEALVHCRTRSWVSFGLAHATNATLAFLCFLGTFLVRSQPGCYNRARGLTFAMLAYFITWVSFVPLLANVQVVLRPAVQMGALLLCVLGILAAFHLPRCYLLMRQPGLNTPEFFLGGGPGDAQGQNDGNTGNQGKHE
Method: Each of Compounds 101-106 was synthesized. Thereafter, the compounds were tested in an in vitro cell-based assay having cells that overexpress the TIR sweet taste receptor. The sweet dose-response curves were recorded and the EC50 was determined. Table 2 summarizes calculated EC50 values for certain tested compounds.

[2] = sensory panel paired comparison: sweetness alone versus 1.5 wt % sucrose; assay type: in vivo, human
Method: The test samples were prepared from Compound 101 (4 ppm aqueous solution) and Compound 103 (7 ppm aqueous solution). Each of the test samples was evaluated by a sensory panel for its sweetness relative to 1.5 wt % sucrose solution. The panelists were asked to choose the sweeter sample in a pair of a compound test sample and a 1.5 wt % solution of sucrose. For Compound 101, the taste sample was selected 14 times as sweeter, while the sucrose control was selected 46 times out of total 60 times. For Compound 103, the taste sample was selected 14 times as sweeter, while the sucrose control was selected 55 times out of total 69 times.

[3] = pair: Compound 101 4 ppm aqueous solution vs 1.5 wt % sucrose solution, total 60 times
[4] = pair: Compound 103 7 ppm aqueous solution vs 1.5 wt % sucrose solution, total 69 times

## COc1ccc(C2Oc3cccc(O)c3C(=O)C2OC(C)=O)cc1O (stereo not drawn) [Compound 101, 5-hydroxy-2-(3-hydroxy-4-methoxy-phenyl)-4-oxochroman-3-yl acetate]
[1]; 6 wt % sucrose + 4 ppm compound
  Sweetness Score: 9.8
TIR sweet taste receptor
  EC50: ~1 µM
[2]; [3]
  times selected as sweeter: 14 times

## CCC(=O)OC1C(=O)c2c(O)cccc2OC1c1ccc(OC)c(O)c1 (stereo not drawn) [Compound 102, 5-hydroxy-2-(3-hydroxy-4-methoxy-phenyl)-4-oxochroman-3-yl propionate]
TIR sweet taste receptor
  EC50: ~2 µM
TIR sweet taste receptor; remark printed beside the EC50
  agonist character: partial agonist

## COc1ccc(C2Oc3cc(O)ccc3C(=O)C2OC(C)=O)cc1O (stereo not drawn) [Compound 103, 7-hydroxy-2-(3-hydroxy-4-methoxyphenyl)-4-oxochroman-3-yl acetate]
[1]; 6 wt % sucrose + 7 ppm compound
  Sweetness Score: 8.8
TIR sweet taste receptor
  EC50: ~8 µM
[2]; [4]
  times selected as sweeter: 14 times

## CCC(=O)OC1C(=O)c2ccc(O)cc2OC1c1ccc(OC)c(O)c1 (stereo not drawn) [Compound 104, 7-hydroxy-2-(3-hydroxy-4-methoxyphenyl)-4-oxochroman-3-yl propionate]
TIR sweet taste receptor
  EC50: ~10 µM

## CCC(=O)OC1C(=O)c2c(O)cc(O)cc2OC1c1ccc(OC)c(O)c1 (stereo not drawn) [Compound 105, 5,7-dihydroxy-2-(3-hydroxy-4-methoxyphenyl)-4-oxochroman-3-yl propionate]
TIR sweet taste receptor
  EC50: ~5 µM

## CC(=O)OC1C(=O)c2c(O)cccc2OC1c1ccc(O)cc1 (stereo not drawn) [Compound 106, 5-hydroxy-2-(4-hydroxyphenyl)-4-oxochroman-3-yl acetate]
TIR sweet taste receptor
  EC50: ~45 µM

## OC[C@H]1O[C@@](CO)(O[C@H]2O[C@H](CO)[C@@H](O)[C@H](O)[C@H]2O)[C@@H](O)[C@@H]1O [sucrose, reference compound]
[1]; 6 wt % sucrose alone, low sodium buffer (control)
  Sweetness Score: 6.6
[1]; 7.5 wt % sucrose alone, low sodium buffer (control)
  Sweetness Score: 8.6
[2]; [3]
  times selected as sweeter: 46 times
[2]; [4]
  times selected as sweeter: 55 times
